Values after ≈ are worked out from the molar mass of the structure shown.
Experiments:
MT4 [1] = assay: Compound was tested in vitro for antiviral activity against MT-4 human lymphoid cells infected with the HIV IIIb isolate; value ranges from 25-50; assay type: functional; conditions: read-out: CIC95
[2] = Maximal plasma concentration was determined.; assay type: ADME, organism-based; conditions: rat
[3] = Solubility at pH 7.4; assay type: physicochemical; conditions: buffer
[4] = Solubility at pH 5.2; assay type: physicochemical; conditions: buffer
MT4 [5] = assay: Compound was tested in vitro for antiviral activity against MT-4 human lymphoid cells infected with the HIV IIIb isolate; assay type: functional; conditions: read-out: CIC95
[6] = target: Human immunodeficiency virus type 1 protease (Human immunodeficiency virus 1, UniProt Q72874); assay: Inhibition of HIV-1 Protease

## CC(C)[C@@H]1[C@H](OC(=O)N[C@@H](Cc2ccccc2)[C@H](O)CN2CCN(Cc3cccs3)C[C@H]2C(=O)NC(C)(C)C)CCS1(=O)=O
MT4 [1]
  IC95: 25 nM

## CC(C)[C@@H]1[C@H](OC(=O)N[C@@H](Cc2ccccc2)[C@H](O)CN2CCN(CCc3cccs3)C[C@H]2C(=O)NC(C)(C)C)CCS1(=O)=O
MT4 [1]
  IC95: 25 nM
[2]
  Cmax: > 1000 nM
[3]
  solubility: 91.3 µg/mL (≈ 138 µM)
[4]
  solubility: 1270 µg/mL (≈ 1920 µM)

## CCc1ccc(CCN2CCN(C[C@@H](O)[C@H](Cc3ccccc3)NC(=O)O[C@@H]3CCS(=O)(=O)[C@@H]3C(C)C)[C@H](C(=O)NC(C)(C)C)C2)s1
MT4 [5]
  IC95: 50 nM

## CC(C)[C@@H]1[C@H](OC(=O)N[C@@H](Cc2ccccc2)[C@H](O)CN2CCN(CCc3ccsc3)C[C@H]2C(=O)NC(C)(C)C)CCS1(=O)=O
MT4 [5]
  IC95: 50 nM

## CC(C)[C@@H]1[C@H](OC(=O)N[C@@H](Cc2ccccc2)[C@H](O)CN2CCN(Cc3ccc(Br)s3)C[C@H]2C(=O)NC(C)(C)C)CCS1(=O)=O
MT4 [5]
  IC95: 100 nM

## Cc1cc(CN2CCN(C[C@@H](O)[C@H](Cc3ccccc3)NC(=O)O[C@@H]3CCS(=O)(=O)[C@@H]3C(C)C)[C@H](C(=O)NC(C)(C)C)C2)cc(Cl)n1
MT4 [5]
  IC95: 25 nM

## CC(C)[C@@H]1[C@H](OC(=O)N[C@@H](Cc2ccccc2)[C@H](O)CN2CCN(Cc3ccc(-c4cccs4)s3)C[C@H]2C(=O)NC(C)(C)C)CCS1(=O)=O
MT4 [5]
  IC95: 50 nM

## CC(C)[C@@H]1[C@H](OC(=O)N[C@@H](Cc2ccccc2)[C@H](O)CN2CCN(Cc3cc4sccc4s3)C[C@H]2C(=O)NC(C)(C)C)CCS1(=O)=O
MT4 [5]
  IC95: 6 nM
[3]
  solubility: < 0.05 µg/mL
[4]
  solubility: 6.9 µg/mL (≈ 9.79 µM)

## CC(C)[C@@H]1[C@H](OC(=O)N[C@@H](Cc2ccccc2)[C@H](O)CN2CCN(Cc3cc4ccccc4s3)C[C@H]2C(=O)NC(C)(C)C)CCS1(=O)=O
MT4 [5]
  IC95: 100 nM

## CC(C)[C@@H]1[C@H](OC(=O)N[C@@H](Cc2ccccc2)[C@H](O)CN2CCN(Cc3ccsc3)C[C@H]2C(=O)NC(C)(C)C)CCS1(=O)=O
MT4 [5]
  IC95: 50 nM

## CC(C)[C@@H]1[C@H](OC(=O)N[C@@H](Cc2ccccc2)[C@H](O)CN2CCN(Cc3cc(Br)cs3)C[C@H]2C(=O)NC(C)(C)C)CCS1(=O)=O
MT4 [5]
  IC95: 25 nM
[3]
  solubility: < 0.08 µg/mL
[4]
  solubility: 37.2 µg/mL (≈ 51.1 µM)

## CC(C)[C@@H]1[C@H](OC(=O)N[C@@H](Cc2ccccc2)[C@H](O)CN2CCN(Cc3csc4ccc(Cl)cc34)C[C@H]2C(=O)NC(C)(C)C)CCS1(=O)=O
[6]
  IC50: 0.47 nM
MT4 [5]
  IC95: 100 nM

## CC(C)[C@@H]1[C@H](OC(=O)N[C@@H](Cc2ccccc2)[C@H](O)CN2CCN(Cc3cc4ccsc4s3)C[C@H]2C(=O)NC(C)(C)C)CCS1(=O)=O
MT4 [5]
  IC95: 12 nM
[3]
  solubility: 0.1 µg/mL (≈ 0.142 µM)
[4]
  solubility: 11.1 µg/mL (≈ 15.7 µM)

From ChEMBL document CHEMBL1128041, “Thiophene derivatives as extremely high affinity P3 ligands for the hydroxyethylpiperazine class of HIV-1 protease inhibitors” (Bioorg Med Chem Lett, 1995)
